Measured values published in ChEMBL document CHEMBL5113489, “Design, synthesis, and biological evaluation of membrane-active honokiol derivatives as potent antibacterial agents” (Eur J Med Chem, 2022).
The source made the active and inactive calls. The calls are words filed in the database; no cut-off is given here.

What was measured:
Staphylococcus aureus [1] = test: Antibacterial activity against Staphylococcus aureus ATCC 25923; type: functional
Staphylococcus aureus [2] = test: Antibacterial activity against Staphylococcus aureus ATCC 43300; type: functional
Bacillus subtilis = test: Antibacterial activity against Bacillus subtilis ATCC 9372; type: functional
Pseudomonas aeruginosa = test: Antibacterial activity against Pseudomonas aeruginosa ATCC 27853; type: functional
[3] = Hemolytic activity in sheep RBC; type: toxicity, cell-based, Ovis aries, Erythrocyte; settings: sheep red blood cells (erythrocytes)
Staphylococcus aureus [4] = test: Antibacterial activity against Staphylococcus aureus ATCC 43300 assessed as bacterial killing at 4 x MIC incubated for 9 hrs and measured by time-kill kinetic study; type: functional
Staphylococcus aureus [5] = test: Antibacterial activity against Staphylococcus aureus ATCC 43300 assessed as bacterial killing at 8XMIC incubated for 3 hrs and measured by time-kill kinetic study; type: functional
Staphylococcus aureus [6] = test: Antibacterial activity against Staphylococcus aureus ATCC 43300 assessed as resistance development by measuring fold increase in MIC; type: functional
Staphylococcus aureus [7] = test: Anti-biofilm activity in Staphylococcus aureus ATCC 43300 assessed as inhibition of biofilm formation at 0.25 ug/ml; type: functional
Staphylococcus aureus [8] = test: Anti-biofilm activity in Staphylococcus aureus ATCC 43300 assessed as inhibition of biofilm formation at 1 ug/ml; type: functional
Staphylococcus aureus [9] = test: Anti-biofilm activity in Staphylococcus aureus ATCC 43300 assessed as inhibition of biofilm formation at 2 ug/ml; type: functional
Staphylococcus aureus [10] = test: Anti-biofilm activity in Staphylococcus aureus ATCC 43300 assessed as inhibition of biofilm formation at 4 ug/ml; type: functional
Staphylococcus aureus [11] = test: Anti-biofilm activity in Staphylococcus aureus ATCC 43300 assessed as inhibition of biofilm formation at 8 ug/ml; type: functional
Escherichia coli [12] = test: Anti-biofilm activity in Escherichia coli ATCC 25922 assessed as inhibition of biofilm formation at 1 ug/ml; type: functional
Escherichia coli [13] = test: Anti-biofilm activity in Escherichia coli ATCC 25922 assessed as inhibition of biofilm formation at 4 ug/ml; type: functional
Escherichia coli [14] = test: Anti-biofilm activity in Escherichia coli ATCC 25922 assessed as inhibition of biofilm formation at 8 ug/ml; type: functional
Escherichia coli [15] = test: Anti-biofilm activity in Escherichia coli ATCC 25922 assessed as inhibition of biofilm formation at 16 ug/ml; type: functional
Escherichia coli [16] = test: Anti-biofilm activity in Escherichia coli ATCC 25922 assessed as inhibition of biofilm formation at 32 ug/ml; type: functional
Staphylococcus aureus [17] = test: Anti-biofilm activity in Staphylococcus aureus ATCC 43300 assessed as disruption rate of biofilm at 0.5 ug/ml measured by crystal violet staining method; type: functional; settings: dose 0.5 µg/ml
Staphylococcus aureus [18] = test: Anti-biofilm activity in Staphylococcus aureus ATCC 43300 assessed as disruption rate of biofilm at 2 ug/ml measured by crystal violet staining method; type: functional; settings: dose 2 µg/ml
Staphylococcus aureus [19] = test: Anti-biofilm activity in Staphylococcus aureus ATCC 43300 assessed as disruption rate of biofilm at 4 ug/ml measured by crystal violet staining method; type: functional; settings: dose 4 µg/ml
Staphylococcus aureus [20] = test: Anti-biofilm activity in Staphylococcus aureus ATCC 43300 assessed as disruption rate of biofilm at 16 ug/ml measured by crystal violet staining method; type: functional; settings: dose 16 µg/ml
Escherichia coli [21] = test: Anti-biofilm activity in Escherichia coli ATCC 25922 assessed as disruption rate of biofilm at 2 ug/ml measured by crystal violet staining method; type: functional; settings: dose 2 µg/ml
Escherichia coli [22] = test: Anti-biofilm activity in Escherichia coli ATCC 25922 assessed as disruption rate of biofilm at 16 ug/ml measured by crystal violet staining method; type: functional; settings: dose 16 µg/ml
Cell membrane [23] = test: Induction of cytoplasmic membrane depolarization in Escherichia coli ATCC 25922 assessed as increase in fluorescence intensity at 1 to 8 times MIC measured by DiSC3-5 dye based fluorescence method; type: subcellular
Cell membrane [24] = test: Induction of inner membrane permeabilization in Staphylococcus aureus ATCC 43300 assessed as increase in PI uptake by measuring increase in fluorescence intensity at 1 to 8 ug/ml by propidium iodide staining based fluorescence analysis; type: subcellular; settings: dose 1-8 µg/ml
Cell membrane [25] = test: Induction of inner membrane permeabilization in Escherichia coli ATCC 25922 assessed as increase in PI uptake by measuring increase in fluorescence intensity at 4 to 32 ug/ml by propidium iodide staining based fluorescence analysis; type: subcellular; settings: dose 4-32 µg/ml
Cell membrane [26] = test: Induction of outer membrane permeabilization to NPN in Escherichia coli ATCC 25922 cells assessed as increase in fluorescence intensity at 4 to 32 ug/ml by NPN-probe based fluorescence spectrophotometric analysis; type: subcellular; settings: dose 4-32 µg/ml
Cell membrane [27] = test: Induction of cell membrane disruption in Staphylococcus aureus ATCC 43300 assessed as increase in fluorescence intensity at 8 times MIC measured after 2 hrs by PI staining based fluorescence microscopic analysis; type: subcellular
Cell membrane [28] = test: Induction of cell membrane disruption in Staphylococcus aureus ATCC 43300 assessed as increase in fluorescence intensity at 8 times MIC measured after 2 hrs by DAPI staining based fluorescence microscopic analysis
Cell membrane [29] = test: Induction of cell membrane disruption in Escherichia coli ATCC 25922 assessed as increase in fluorescence intensity at 8 times MIC measured after 2 hrs by DAPI staining based fluorescence microscopic analysis
[30] = Cytotoxicity against human HepG2 cells assessed as cell viability at 4 ug/ml measured by SRB assay; type: toxicity, cell-based; settings: at 4 µg/mL, read-out: Activity
[31] = Cytotoxicity against human HepG2 cells assessed as cell viability at 8 ug/ml measured by SRB assay; type: toxicity, cell-based; settings: at 8 µg/mL, read-out: Activity
[32] = Cytotoxicity against human HepG2 cells assessed as cell viability at 16 ug/ml measured by SRB assay; type: toxicity, cell-based; settings: at 16 µg/mL, read-out: Activity
[33] = Cytotoxicity against human HepG2 cells assessed as cell viability at 32 ug/ml measured by SRB assay; type: toxicity, cell-based; settings: at 32 µg/mL, read-out: Activity
[34] = Cytotoxicity against human HepG2 cells assessed as cell viability at 64 ug/ml measured by SRB assay; type: toxicity, cell-based; settings: at 64 µg/mL, read-out: Activity
Staphylococcus aureus [35] = test: In vivo antibacterial activity against Staphylococcus aureus ATCC 43300 in septicemia mouse model assessed as reduction in bacterial load in kidney at 10 mg/kg, administered every 12 hrs for 3 days; type: functional; design: scale not given: the % may be the effect or the level left
Staphylococcus aureus [36] = test: In vivo antibacterial activity against Staphylococcus aureus ATCC 43300 in septicemia mouse model assessed as log reduction in bacterial load in liver at 10 mg/kg, administered every 12 hrs for 3 days; type: functional
Staphylococcus aureus [37] = test: In vivo antibacterial activity against Staphylococcus aureus ATCC 43300 in septicemia mouse model assessed as log reduction in bacterial load in spleen at 10 mg/kg, administered every 12 hrs for 3 days; type: functional
Staphylococcus aureus [38] = test: In vivo antibacterial activity against Staphylococcus aureus ATCC 43300 in septicemia mouse model assessed as log reduction in bacterial load in kidney at 10 mg/kg, administered every 12 hrs for 3 days; type: functional
[39] = Toxicity in septicemia mouse model infected with Staphylococcus aureus ATCC 43300 assessed as effect on spleen at 5 to 10 mg/kg, administered every 12 hrs for 3 days measured by histopathological analysis; type: organism-based; settings: in vivo, dose 5-10 mg/kg

C=CCc1ccc(OCCC[N+](C)(C)CCCCCC)c(-c2ccc(OCCC[N+](C)(C)CCCCCC)c(CC=C)c2)c1.[Br-].[Br-]
MIC (Staphylococcus aureus [1]): 2 µg/mL
MIC (Staphylococcus aureus [2]): 1 µg/mL
MIC (Bacillus subtilis): 1 µg/mL
MIC (Pseudomonas aeruginosa): 16 µg/mL
HC50 [3]: 410 µg/mL
Activity (Staphylococcus aureus [4]): >=99%
Activity (Staphylococcus aureus [5]): 100%
fold change (FC) (Staphylococcus aureus [6]): <4
inhibition at 0.25 µg/mL (Staphylococcus aureus [7]): 4.06%
inhibition at 1 µg/mL (Staphylococcus aureus [8]): 12.9%
inhibition at 2 µg/mL (Staphylococcus aureus [9]): 20.1%
inhibition at 4 µg/mL (Staphylococcus aureus [10]): 91.2%
inhibition at 8 µg/mL (Staphylococcus aureus [11]): 93.7%
inhibition at 1 µg/mL (Escherichia coli [12]): 11.3%
inhibition at 4 µg/mL (Escherichia coli [13]): 35.3%
inhibition at 8 µg/mL (Escherichia coli [14]): 49.3%
inhibition at 16 µg/mL (Escherichia coli [15]): 65.4%
inhibition at 32 µg/mL (Escherichia coli [16]): 87.4%
Activity (Staphylococcus aureus [17]): 5.22%
Activity (Staphylococcus aureus [18]): 11.43%
Activity (Staphylococcus aureus [19]): 17.61%
Activity (Staphylococcus aureus [20]): 39.12%
Activity (Escherichia coli [21]): 15.1%
Activity (Escherichia coli [22]): 51.55%
Activity (Cell membrane [23]): Active
Activity (Cell membrane [24]): Active
Activity (Cell membrane [25]): Active
Activity (Cell membrane [26]): Active
Activity (Cell membrane [27]): Active
Activity (Cell membrane [28]): Active
Activity (Cell membrane [29]): Active
viability at 4 ug/ml [30]: 94.7%
viability at 8 ug/ml [31]: 90.3%
viability at 16 ug/ml [32]: 85.4%
viability at 32 ug/ml [33]: 68.1%
viability at 64 ug/ml [34]: 55.2%
Activity (Staphylococcus aureus [35]): 98.7%
log(activity) (Staphylococcus aureus [36]): 2.35
log(activity) (Staphylococcus aureus [37]): 2.19
log(activity) (Staphylococcus aureus [38]): 1.94
Activity [39]: Non-Toxic
